From patent EP2181708A1, “Use of Valproate for reducing CHOP levels, particularly in a mammal having SCI” (Universitat Autonoma de Barcelona, priority 2008, dated 2010) come the findings set out here.

One assay concerns CHOP. The assay can be described thus: Tunicamycin-induced ER stress in primary fibroblasts, Western blot of CHOP. The class given is cell-based, rat. The following applies: primary fibroblast cells, 3 µg/ml tunicamycin, valproate. On the procedure: Primary fibroblasts obtained from rat sciatic nerve and HEK cell line were cultured in Dulbecco's modified Eagle's/F-12 medium supplemented with 10% fetal calf serum (Gibco). Fibroblasts were treated with 3 µg/mL of tunicamycin (Sigma) for 4 h and harvested in RIPA buffer for protein extraction.
We have recently reported that SCI triggers an unbalanced UPR characterized by unchanged levels of BiP/Grp78 levels but progressive accumulation of the pro-apoptotic protein CHOP, with maximal CHOP levels found at 3 days post-injury in the weight-drop contusion model (Penas et al, 2007). In this study, we used a contusion model using an impactor device to specifically control the force (either 150 KDyn or 250 KDyn) to be apply on the T8 laminectomized spinal cord segment. We analyzed the spinal cord 8 mm-length segment that includes the lesion epicenter from sham-operated animals and from VPA treated or vehicle treated SCI animals at 3 days after operation. […] Thus, we increased the amount of VPA administered to 300 mg/kg every 12 h, as reported previously for a brain stroke rat model (Kim et al, 2007), and analyzed the effect using two different contusion forces of 150 and 250 KDyn. We observed that the levels of CHOP were directly proportional to the severity of the lesion; the more severe, the higher the level. […]
A general note: A western blot detects proteins with antibodies after separation by electrophoresis.

The next assay concerns hind limb locomotion. The assay can be described thus: Open-field walking test (BBB scale) after spinal cord contusion. The following applies: SCI 250 Kdyn. In kind it is in vivo, Sprague-Dawley rats. How it is done: (§1) Adult females Sprague-Dawley rats aged 11 weeks (220-250 g) were anesthetized with pentobarbital (40 mg/kg i.p.). When unresponsive, the vertebral column was exposed and a laminectomy carried out at T8-T9 levels. Rostral T7 and caudal T10 vertebral bodies were clamped with Adson stabilizing forceps, and carefully adjusted to level the spinal cord in the horizontal plane. A contusion injury was performed using the Infinite Horizon impactor device (Precision Scientific Instruments, Lexington, KY). The stainless steel impounder tip was placed at 3-4 mm above the exposed spinal cord, and then a fast impact produced applying forces of 150 or 250 kilodynes (KDyn) to the exposed spinal cord. The wound was sutured with 5-0 silk thread in the muscular plane and the skin was closed with small clips and disinfected with povidone iodine solution. Sham-operated animals received the same surgical procedure but sustained no impact injury; the spinal cord was left exposed for 5 min. The animals were maintained in a warm environment until full recovery, and received preventive antibiotic (amoxicyline) and analgesic (buprenorphine) treatment. All animals were kept under standard conditions of light and temperature and fed with food and water ad libitum. […]

For another assay, the system named is BiP/Grp78. The assay can be described thus: Western blot of BiP/Grp78 in spinal cord after contusion SCI. In kind it is in vivo, Sprague-Dawley rats. How it is done:
as §1, with “treatment.” for “treatment. All animals were kept under standard conditions of light and temperature and fed with food and water ad libitum.”
Rats were re-anesthetised and decapitated at 3 dpo for sample preparation. […] After clearance, protein concentration was measured by the BCA method assay (BCA Protein Assay kit, Pierce). […]

In a further assay the test system is ventral horn motoneurons. The assay can be described thus: Ventral horn neuron and motoneuron analysis (cresyl violet, NeuN) after SCI. The class given is in vivo, Sprague-Dawley rats. On the procedure: as §1, with “libitum. The procedures involving animals were approved by the Ethics Committee of our institution, and followed the European Communities Council Directive 86/609/EEC.” for “libitum.”
Motoneurons were identified by their localization in the lateral ventral horn of spinal cord sections stained with cresyl violet and were counted following a method published elsewhere (Grossman et al, 2001) by size and morphological strict criteria. […] Only motoneurons with diameter larger than one square, i.e. ranging from 30 to 70 (m, and with a prominent nucleolus and being polygonal in shape were counted. The mean number of motoneurons per section was calculated. […]

As for `CCCC(CCC)C(=O)O` [VPA, 2-propylpentanoic acid], in the assay on CHOP, the “CHOP accumulation promoted by tunicamycin” value is on record as “can be attenuated”. Moreover, the BBB score in the assay with hind limb locomotion (7 days post-surgery, average of both groups) is 3-4; in the assay on hind limb locomotion (35 days, VPA 300 mg/kg every 12 h one week then every 24 h two weeks, saline 8), 12. Further, the BiP levels result in the assay on BiP/Grp78 (VPA 300 mg/kg every 12 h i.p., contusion 150 and 250 KDyn, three days post-injury) was “not able to alter”; in the assay on BiP/Grp78 (VPA 300mg/kg once per day i.p., vs saline, 3 days post-injury), “did not produce changes”. For the same molecule, the “lesions in the sections distal to the epicenter” value in the assay with ventral horn motoneurons (35 days, vs saline) is recorded as “fewer lesions”. Also, in the assay on ventral horn motoneurons (cresyl violet sections, especially caudal side, did not reach statistical significance), the “length of spinal cord devoid of motoneurons” value is on record as “A reduction”. Besides, the “number of NeuN neurons” value with ventral horn motoneurons (ventral horn, distal to the epicenter) is listed as “more abundant”.
